From ChEMBL document CHEMBL1800029, “N-aryl-benzimidazolones as novel small molecule HSP90 inhibitors” (Bioorg Med Chem Lett, 2010)

What was measured:
[1] = target: T1, Heat shock protein HSP 90-alpha (Homo sapiens, UniProt P07900)
Description: Binding affinity to Hsp90alpha N-terminal ATPase domain by TR-FRET assay based competitive binding assay

[2] = target: T1, Heat shock protein HSP 90-alpha; remark: listed apart in the source
Description: Inhibition of Hsp90alpha ATPase activity by malachite green ATP-ase assay

[3] = target: T1, Heat shock protein HSP 90-alpha; assay: Inhibition of Hsp90alpha in human SKBR3 cells assessed as up-regulation of HSP70 protein by Western blot analysis; type: cell-based, SK-BR-3
SK-BR-3 = assay: Cytotoxicity against human SKBR3 cells; type: functional, cell-based
[4] = target: T1, Heat shock protein HSP 90-alpha; assay: Inhibition of Hsp90alpha in human SKBR3 cells assessed as ErbB2 degradation by Western blot analysis; type: cell-based, SK-BR-3
[5] = target: T1, Heat shock protein HSP 90-alpha; assay: Inhibition of Hsp90alpha in human H1299 cells assessed as HIF-1alpha degradation by luciferase reporter assay; type: cell-based

SMILES | IC50 [1] | IC50 [2] | further results
O=c1[nH]c2cc(CNS(=O)(=O)c3ccccc3)ccc2n1-c1cc(Cl)c(O)cc1O | 27 nM | 3420 nM | 
O=c1[nH]c2cc(C(F)(F)F)ccc2n1-c1cc(C(F)(F)F)ccc1O | 3320 nM | 81000 nM | 
O=c1[nH]c2cc(CNS(=O)(=O)c3cccc4ccccc34)ccc2n1-c1cc(Cl)c(O)cc1O |  | 550 nM | EC50 [3]: 60 nM; EC50 (SK-BR-3): 12 nM; EC50 [4]: < 100 nM; EC50 [5]: 190 nM
CS(=O)(=O)NCc1ccc2c(c1)[nH]c(=O)n2-c1cc(Cl)c(O)cc1O | 50 nM | 25200 nM | 
O=c1[nH]c2ccccc2n1-c1cc(O)c(Cl)cc1O | 2530 nM | 200000 nM | 
O=c1[nH]c2cc(CNS(=O)(=O)c3ccc4ccccc4c3)ccc2n1-c1cc(Cl)c(O)cc1O | 47 nM | 1140 nM | 
CCNC(=O)NCc1ccc2c(c1)[nH]c(=O)n2-c1cc(Cl)c(O)cc1O | 33 nM | 14200 nM | 
CCNC(=O)c1n[nH]c(-c2cc(Cl)c(O)cc2O)c1-c1ccc(OC)cc1 |  |  | EC50 (SK-BR-3): 250 nM
O=c1[nH]c2ccccc2n1-c1ccc(O)cc1O |  | 85000 nM | 
CC(=O)NCc1ccc2c(c1)[nH]c(=O)n2-c1cc(Cl)c(O)cc1O | 40 nM | 24800 nM | 
O=C(NCc1ccc2c(c1)[nH]c(=O)n2-c1cc(Cl)c(O)cc1O)c1ccccc1 | 72 nM | 22900 nM | 
O=c1[nH]c2ccccc2n1-c1cc(O)ccc1O | 34900 nM | 200000 nM | 
O=c1[nH]c2ccccc2n1-c1cc(Cl)c(O)cc1O | 54 nM | 15200 nM | 
O=C(NCc1ccc2c(c1)[nH]c(=O)n2-c1cc(Cl)c(O)cc1O)Nc1ccccc1 | 60 nM | 15400 nM | 
O=c1[nH]c2ccccc2n1-c1cc(C(F)(F)F)ccc1O | 2320 nM | 127000 nM | 
C=CCNC1=C2C[C@@H](C)C[C@H](OC)[C@H](O)[C@@H](C)/C=C(\C)[C@H](OC(N)=O)[C@@H](OC)/C=C\C=C(/C)C(=O)NC(=CC1=O)C2=O [TANESPIMYCIN] |  |  | EC50 (SK-BR-3): 25 nM
